Experimental findings from patent US20240024240A1 (priority 2020, published 2024) are described below.

This data set can be described thus: Sonication of magnesium oxide nanopowder with different ligands (functionalization, dispersion). It counts as physicochemical. Here is the method:
Different capping ligands were selected for the functionalization of magnesium oxide nanoparticles (see FIG. 5). This method is applicable to ligands whose anchoring groups forms stable magnesium complexes such as catecholates, salicylates, phosphates and phosphonates. Even if the affinity of each individual group for the particle surface is low, the multiplicity of anchoring groups provides a strong adsorption. For example, poly-aspartic and poly-glutamic acids were tested for the functionalization of magnesium oxide nanoparticles. In this procedure, the capping ligands were sonicated with the nanoparticles until a complete dispersion was obtained. The stability of the dispersion was evaluated by the absorption spectra of the obtained mixture.
As a starting point for the optimization of the procedure, the magnesium oxide nanoparticles (200 mg) were dispersed in 25 mL of 1% capping agent with continuous stirring at different times. The concentration of nanoparticles and capping agent in the dispersion mixture together with the incubation temperature was optimized to increase the stability of the dispersed nanoparticles. The excess of capping agent was removed by centrifugation and washing with water. […]

With `NCCCC(O)(P(=O)(O)O)P(=O)(O)O` [alendronate], the “dispersion of magnesium oxide nanomaterial with ligand” value (preliminary results, FIG. 7) is “good results”.
With `NCCP(=O)(O)O` [2-aminoethylphosphonic acid], the “effect of ligand on magnesium oxide nanomaterial on sonication” value (magnesium oxide nanopowder sonicated in the presence of the ligand) is given as “dissolved the nanomaterial”.
